Earlier results as cited in patent US20040248901A1, “Compositions containing itraconazole and their preparation methods” (priority 2001, published 2004).

Settings: background art

CCC(C)n1ncn(-c2ccc(N3CCN(c4ccc(OCC5COC(Cn6cncn6)(c6ccc(Cl)cc6Cl)O5)cc4)CC3)cc2)c1=O (mixture of isomers) [itraconazole, (±)-cis-4-[4-[4-[4-[[2-(2,4-dichlorophenyl)-2-(1H-1,2,4-triazol-1-ylmethyloxolan-4-yl]methoxy]phenyl]-1-piperazinyl]phenyl]-2,4-dihydro-2-(1-methylpropyl)-3H-1,2,4-triazol-3-one]
solubility in water: ≤ 1 µg/mL
